What was measured:
[1] = biological target: recombinant human dipeptidyl peptidase IV (DPPIV) (Homo sapiens (Human), UniProt P27487); test: In vitro assay dipeptidyl peptidase IV IC50 (Example 21); format: biochemical
[2] = Effect of N-acetyl methionine (NAM) on stability of 6522/6555 with 50 mM AAPH at 80° C. for 30 mins; format: physicochemical; details: pH 5.0, 2 mg/mL
Experimental: Effect of N-acetyl methionine (NAM) on the stability of the compound 6522 (6522 compound structure immediately below) 80° C. in the presence of AAPH 2,2′-azobis-(2-amidopropane)hydrochloride, a free radical generator.
• Concentration:2 mg/mL • Reaction condition: add 50 mM AAPH, at 80° C. for 30 mins

[3] = biological target: recombinant human fibroblast activation protein (FAP) (Homo sapiens (Human), UniProt Q12884); test: In vitro assay fibroblast activation protein IC50 (Example 21); format: biochemical
recombinant human fibroblast activation protein (FAP), sequence (Q12884 whole entry): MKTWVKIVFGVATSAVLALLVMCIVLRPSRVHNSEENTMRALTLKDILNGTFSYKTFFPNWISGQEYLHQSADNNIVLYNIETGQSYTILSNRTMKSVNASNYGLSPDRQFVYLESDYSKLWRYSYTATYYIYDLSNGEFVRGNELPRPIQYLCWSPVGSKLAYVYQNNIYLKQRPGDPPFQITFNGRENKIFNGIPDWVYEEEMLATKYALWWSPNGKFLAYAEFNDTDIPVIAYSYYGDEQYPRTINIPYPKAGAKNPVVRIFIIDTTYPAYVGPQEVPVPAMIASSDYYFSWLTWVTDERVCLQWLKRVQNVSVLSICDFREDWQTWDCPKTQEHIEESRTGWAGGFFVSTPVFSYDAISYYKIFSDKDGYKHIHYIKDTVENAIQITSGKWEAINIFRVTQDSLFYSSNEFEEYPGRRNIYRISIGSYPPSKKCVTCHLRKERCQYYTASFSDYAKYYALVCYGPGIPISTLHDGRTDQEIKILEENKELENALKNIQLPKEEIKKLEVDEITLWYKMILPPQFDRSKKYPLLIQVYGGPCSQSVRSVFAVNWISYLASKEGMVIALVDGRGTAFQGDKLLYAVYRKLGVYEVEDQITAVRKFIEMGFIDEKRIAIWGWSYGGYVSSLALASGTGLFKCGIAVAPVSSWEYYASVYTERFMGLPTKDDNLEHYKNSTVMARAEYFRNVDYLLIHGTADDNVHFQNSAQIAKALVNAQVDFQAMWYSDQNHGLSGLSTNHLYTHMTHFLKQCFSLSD

[4] = Stability of 6555 with sulfur-containing and other stabilizers, 50 mM AAPH at 80° C. for 30 mins (Tables 7-9); format: physicochemical; details: 50 mM AAPH, 80° C., 0.5 hr, (+) mode
Text: The effect of specified sulfur-containing compounds and other stabilizer compounds (including non-sulfur-containing stabilizer compounds) and mixtures of sulfur-containing compounds and non-sulfur-containing stabilizer compounds with the boronic acid compound 6555 (structure shown above) at various pH values.

recombinant human dipeptidyl peptidase IV (DPPIV), sequence (P27487 whole entry): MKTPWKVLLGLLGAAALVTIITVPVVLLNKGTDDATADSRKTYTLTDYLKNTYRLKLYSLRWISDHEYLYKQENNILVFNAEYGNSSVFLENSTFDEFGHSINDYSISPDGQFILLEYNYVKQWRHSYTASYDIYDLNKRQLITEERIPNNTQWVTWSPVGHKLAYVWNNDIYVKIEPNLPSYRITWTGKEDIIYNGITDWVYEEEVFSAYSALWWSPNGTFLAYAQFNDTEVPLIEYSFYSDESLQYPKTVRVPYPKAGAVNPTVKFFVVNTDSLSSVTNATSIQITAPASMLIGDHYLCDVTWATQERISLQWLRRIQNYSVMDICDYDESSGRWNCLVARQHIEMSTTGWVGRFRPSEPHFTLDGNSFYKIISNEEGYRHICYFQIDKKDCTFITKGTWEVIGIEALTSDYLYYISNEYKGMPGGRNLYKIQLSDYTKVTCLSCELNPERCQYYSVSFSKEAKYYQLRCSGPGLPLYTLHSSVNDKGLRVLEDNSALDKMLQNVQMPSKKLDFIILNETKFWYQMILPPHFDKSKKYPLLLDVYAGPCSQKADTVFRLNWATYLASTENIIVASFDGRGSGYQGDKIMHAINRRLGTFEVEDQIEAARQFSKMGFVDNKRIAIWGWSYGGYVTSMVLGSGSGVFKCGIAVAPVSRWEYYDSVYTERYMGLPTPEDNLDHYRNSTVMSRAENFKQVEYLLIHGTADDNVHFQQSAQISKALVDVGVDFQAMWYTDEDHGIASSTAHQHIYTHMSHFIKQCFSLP

C[C@@H](NC(=O)c1ccc(CNC(=O)CN2CCN(CC(=O)O)CCN(CC(=O)O)CCN(CC(=O)O)CC2)cc1)C(=O)N1CCC[C@H]1B(O)O [compound 6555, DOTA-aminomethyl-Bz-D-Ala-boroPro]
IC50 [1]: > 100000 nM
6555 Remain (%) ([2]; NAM 0 mM): 64.5%
6555 Remain (%) ([2]; NAM 10 mM): 81.7%
6555 Remain (%) ([2]; NAM 40 mM): 82.9%
6555 Remain (%) ([2]; NAM 80 mM): 85.0%
6555 Remain (%) ([2]; NAM 100 mM): 85.6%
6555 Remain (%) ([2]; NAM 200 mM): 87.3%
6555 Remain (%) ([2]; NAM 400 mM): 90.2%
IC50 [3]: 3.8 nM
6555 Remaining (%) ([4]; NAM 5 mM, sodium metabisulfite 5 mM, pH 4.3): 88.8%
6555 Remaining (%) ([4]; NAM 25 mM, pH 4.0): 85.9%
6555 Remaining (%) ([4]; no stabilizer, pH 4.6): 55.8%
6555 Remaining (%) ([4]; sodium ascorbate 2.5 mM, sodium gentisate 1 mM, Acetone sodium bisulfite (2.5 mM), pH 4.6): 73.1%
6555 Remaining (%) ([4]; sodium ascorbate 2.5 mM, sodium gentisate 1 mM, Acetone sodium bisulfite (25 mM), pH 4.6): 94.0%
6555 Remaining (%) ([4]; sodium ascorbate 2.5 mM, sodium gentisate 1 mM, D-mannitol (25 mM), pH 4.5): 15.5%
6555 Remaining (%) ([4]; sodium ascorbate 2.5 mM, sodium gentisate 1 mM, Disodium hydrosulfite (25 mM), pH 4.3): 94.1%
6555 Remaining (%) ([4]; sodium ascorbate 2.5 mM, sodium gentisate 1 mM, MSM(dimethyl sulfone) (25 mM), pH 4.5): 8.2%
6555 Remaining (%) ([4]; sodium ascorbate 2.5 mM, sodium gentisate 1 mM, N-Acetyl-L-phenylalanine (25 mM), pH 4.0): 20.1%
6555 Remaining (%) ([4]; sodium ascorbate 2.5 mM, sodium gentisate 1 mM, N-Acetyl-L-tyrosine (25 mM), pH 4.0): 13.6%
6555 Remaining (%) ([4]; sodium ascorbate 2.5 mM, sodium gentisate 1 mM, NAC (25 mM), pH 4.1): 31.4%
6555 Remaining (%) ([4]; sodium ascorbate 2.5 mM, sodium gentisate 1 mM, NAM 2.5 mM, sodium metabisulfite 2.5 mM, pH 4.5): 94.8%
6555 Remaining (%) ([4]; sodium ascorbate 2.5 mM, sodium gentisate 1 mM, NAM 2.5 mM, pH 4.5): 53.3%
6555 Remaining (%) ([4]; sodium ascorbate 2.5 mM, sodium gentisate 1 mM, NAM 10 mM, sodium metabisulfite 2.5 mM, pH 4.0): 93.2%
6555 Remaining (%) ([4]; sodium ascorbate 2.5 mM, sodium gentisate 1 mM, NAM 25 mM, sodium metabisulfite 2.5 mM, pH 4.0): 92.2%
6555 Remaining (%) ([4]; sodium ascorbate 2.5 mM, sodium gentisate 1 mM, NAM 25 mM, pH 4.0): 90.8%
6555 Remaining (%) ([4]; sodium ascorbate 2.5 mM, sodium gentisate 1 mM, Potassium metabisulfite (2.5 mM), pH 4.4): 93.7%
6555 Remaining (%) ([4]; sodium ascorbate 2.5 mM, sodium gentisate 1 mM, Potassium metabisulfite (25 mM), pH 4.5): 94.1%
6555 Remaining (%) ([4]; sodium ascorbate 2.5 mM, sodium gentisate 1 mM, Sodium L-Glutamate monohydrate (concentration cut off), pH 4.7): 8.2%
6555 Remaining (%) ([4]; sodium ascorbate 2.5 mM, sodium gentisate 1 mM, Sodium formaldehydesulfoxylate di (concentration cut off), pH 4.4): 91.7%
6555 Remaining (%) ([4]; sodium ascorbate 2.5 mM, sodium gentisate 1 mM, Sodium formaldehydesulfoxylate di (concentration cut off, second entry), pH 4.5): 58.0%
6555 Remaining (%) ([4]; sodium ascorbate 2.5 mM, sodium gentisate 1 mM, Sodium sulfite (2.5 mM), pH 4.5): 67.9%
6555 Remaining (%) ([4]; sodium ascorbate 2.5 mM, sodium gentisate 1 mM, Sodium sulfite (5 mM), pH 4.6): 90.3%
6555 Remaining (%) ([4]; sodium ascorbate 2.5 mM, sodium gentisate 1 mM, Sodium sulfite (10 mM), pH 4.8): 93.8%
6555 Remaining (%) ([4]; sodium ascorbate 2.5 mM, sodium gentisate 1 mM, Sodium sulfite (25 mM), pH 5.1): 94.1%
6555 Remaining (%) ([4]; sodium ascorbate 2.5 mM, sodium gentisate 1 mM, Thiourea (25 mM), pH 4.5): 84.1%
6555 Remaining (%) ([4]; sodium ascorbate 2.5 mM, sodium gentisate 1 mM, disodium hydrosulfite 1 mM, pH 4.5): 47.4%
6555 Remaining (%) ([4]; sodium ascorbate 2.5 mM, sodium gentisate 1 mM, disodium hydrosulfite 2.5 mM, pH 4.4): 91.7%
6555 Remaining (%) ([4]; sodium ascorbate 2.5 mM, sodium gentisate 1 mM, disodium hydrosulfite 5.0 mM, pH 4.5): 94.3%
6555 Remaining (%) ([4]; sodium ascorbate 2.5 mM, sodium gentisate 1 mM, disodium hydrosulfite 10.0 mM, pH 4.5): 94.1%
6555 Remaining (%) ([4]; sodium ascorbate 2.5 mM, sodium gentisate 1 mM, disodium hydrosulfite 40.0 mM, pH 4.0): 94.6%
6555 Remaining (%) ([4]; sodium ascorbate 2.5 mM, sodium gentisate 1 mM, sodium metabisulfite 1 mM, pH 4.5): 71.1%
6555 Remaining (%) ([4]; sodium ascorbate 2.5 mM, sodium gentisate 1 mM, sodium metabisulfite 2.5 mM, pH 4.5): 93.4%
6555 Remaining (%) ([4]; sodium ascorbate 2.5 mM, sodium gentisate 1 mM, sodium metabisulfite 25 mM, pH 4.4): 93.8%
6555 Remaining (%) ([4]; sodium ascorbate 2.5 mM, sodium gentisate 1 mM, pH 4.6): 30.8%
6555 Remaining (%) ([4]; sodium ascorbate 2.5 mM, sodium gentisate 1 mM, pH 5.1): 16.7%
6555 Remaining (%) ([4]; sodium ascorbate 5 mM, sodium gentisate 2 mM, NAM 5 mM, disodium hydrosulfite 5 mM, pH 4.5): 95.7%
6555 Remaining (%) ([4]; sodium ascorbate 5 mM, sodium gentisate 2 mM, NAM 5 mM, sodium metabisulfite 5 mM, pH 4.5): 95.8%
6555 Remaining (%) ([4]; sodium ascorbate 5 mM, sodium gentisate 2 mM, NAM 5 mM, pH 4.5): 66.5%

Reference: patent US20240207292A1, “BORONIC ACID COMPOUNDS, COMPOSITIONS AND METHODS” (Trustees of Tufts College, priority 2021, published 2024)
